Earlier results, collected in US6414139B1, “Silicon amphiphilic compounds and the use thereof” (Imarx Therapeutics, Inc., priority 1996, dated 2002).

Conditions: gel state to liquid crystalline state; CRC Handbook of Lipid Bilayers p. 139

Main Phase Transition Temperature [°C]	Structure (SMILES)
79.5	CCCCCCCCCCCCCCCCCCCCCCC(=O)OC[C@H](COP(=O)([O-])OCC[N+](C)(C)C)OC(=O)CCCCCCCCCCCCCCCCCCCCCC [1,2-(23:0)]
80.1	CCCCCCCCCCCCCCCCCCCCCCCC(=O)OC[C@H](COP(=O)([O-])OCC[N+](C)(C)C)OC(=O)CCCCCCCCCCCCCCCCCCCCCCC [1,2-(24:0)]
